Activity calls are given as the source filed them. The rule behind the calls is not given here.
Experiments:
[1] = target: Transcriptional enhancer factor TEF-3 (Homo sapiens, UniProt Q15561); assay: Binding affinity to N-terminal His6-tagged human TEAD4-YBD (217 to 434 residues) expressed in Escherichia coli C43 (DE3) cells assessed as change in melting temperature at 1:1 ratio by SYPRO-dye based thermal shift assay
[2] = target: Fatty acid-binding protein 5 (Homo sapiens) (UniProt Q01469); assay: Binding affinity to FABP5 (unknown origin) at 1:1 ratio by fluorescence based thermal shift assay
[3] = target: Catenin beta-1 (Homo sapiens) (UniProt P35222); assay: Inhibition of beta catenin (unknown origin) expressed in HEK293T cells at 10 to 20 uM by dual-TOPFlash reporter gene assay; assay type: cell-based
[4] = target: Serine/threonine-protein kinase TAO2 (Homo sapiens) (UniProt Q9UL54); assay: Inhibition of recombinant human TAO2 (1 to 320 residues) at 10 uM using myelin basic protein as substrate measured after 40 mins in presence of [gamm33P]ATP by scintillation counting method relative to control
[5] = target: LIM domain kinase 2 (Homo sapiens) (UniProt P53671); assay: Inhibition of human LIMK2 at 10 uM by radiometric assay relative to control
[6] = target: Vascular endothelial growth factor receptor 2 (Homo sapiens) (UniProt P35968); assay: Inhibition of recombinant human KDR (790 to end residues) at 10 uM using myelin basic protein as substrate measured after 40 mins in presence of [gamm33P]ATP by scintillation counting method relative to control
[7] = target: Tyrosine-protein kinase JAK2 (Homo sapiens) (UniProt O60674); assay: Inhibition of recombinant human JAK2 (808 to end residues) at 10 uM using KTFCGTPEYLAPEVRREPRILSEEEQEMFRDFDYIADWC as substrate measured after 40 mins in presence of [gamm33P]ATP by scintillation counting method relative to control
[8] = target: Insulin receptor-related protein (Homo sapiens) (UniProt P14616); assay: Inhibition of recombinant human IRR (943 to 1266 residues) at 10 uM using myelin basic protein as substrate measured after 40 mins in presence of [gamma33P]ATP by scintillation counting method relative to control
[9] = target: Serine/threonine-protein kinase TAO1 (Homo sapiens) (UniProt Q7L7X3); assay: Inhibition of recombinant human TAO1 (1 to 327 residues) at 10 uM using myelin basic protein as substrate measured after 40 mins in presence of [gamma33P]ATP by scintillation counting method relative to control
[10] = target: Interleukin-1 receptor-associated kinase 1 (Homo sapiens) (UniProt P51617); assay: Inhibition of recombinant human IRAK1 (194 to end residues) at 10 uM using myelin basic protein as substrate after 40 mins in presence of [gamma33P]ATP by scintillation counting method relative to control
[11] = target: Tyrosine-protein kinase HCK (Homo sapiens) (UniProt P08631); assay: Inhibition of recombinant human Hck activated (230 to 497 residues) at 10 uM using GGMEDIYFEFMGGKKK as substrate after 40 mins in presence of [gamma33P]ATP by scintillation counting method relative to control
[12] = target: Rhodopsin kinase GRK7 (Homo sapiens) (UniProt Q8WTQ7); assay: Inhibition of full length recombinant human GRK7 at 10 uM using casein as substrate after 40 mins in presence of [gamma33P]ATP by scintillation counting method relative to control
[13] = target: Serine/threonine-protein kinase D2 (Homo sapiens) (UniProt Q9BZL6); assay: Inhibition of full-length recombinant human PKD2 at 10 uM using KKLNRTLSVA as substrate after 40 mins by in presence of [gamma33P]ATP by scintillation counting method relative to control
[14] = system: RAC-gamma serine/threonine-protein kinase (Homo sapiens), Q9Y243 [S472D]; assay: Inhibition of recombinant human PKBgamma S472D mutant (117 to end residues) at 10 uM using GRPRTSSFAEGKK as substrate after 40 mins by in presence of [gamma33P]ATP by scintillation counting method relative to control
RAC-gamma serine/threonine-protein kinase (Homo sapiens), Q9Y243 [S472D], sequence (Q9Y243 whole entry S472D): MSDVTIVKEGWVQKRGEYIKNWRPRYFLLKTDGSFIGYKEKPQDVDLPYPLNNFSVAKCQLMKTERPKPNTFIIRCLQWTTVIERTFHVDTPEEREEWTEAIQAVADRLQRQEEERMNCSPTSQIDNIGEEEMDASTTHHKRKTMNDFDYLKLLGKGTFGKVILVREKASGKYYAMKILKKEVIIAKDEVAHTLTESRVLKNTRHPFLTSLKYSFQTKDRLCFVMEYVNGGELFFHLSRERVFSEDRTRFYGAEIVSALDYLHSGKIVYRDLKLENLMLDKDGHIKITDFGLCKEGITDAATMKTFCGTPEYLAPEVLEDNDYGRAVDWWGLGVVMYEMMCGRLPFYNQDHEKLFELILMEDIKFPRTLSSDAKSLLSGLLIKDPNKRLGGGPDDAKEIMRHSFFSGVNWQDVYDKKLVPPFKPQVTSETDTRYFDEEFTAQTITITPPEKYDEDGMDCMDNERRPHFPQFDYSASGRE

Homo sapiens = organism: Homo sapiens; assay: Inhibition of full-length recombinant human PKBalpha S478G mutant at 10 uM using GRPRTSSFAEGKK as substrate after 40 mins by in presence of [gamma33P]ATP by scintillation counting method relative to control
[15] = target: Serine/threonine-protein kinase pim-1 (Homo sapiens) (UniProt P11309); assay: Inhibition of recombinant full-length human PIM1 at 10 uM using KKRNRTLTV as substrate measured after 40 mins in presence of [gamma33P]ATP by scintillation counting method relative to control
Serine/threonine-protein kinase pim-1 (Homo sapiens), sequence (P11309 whole entry, looked up): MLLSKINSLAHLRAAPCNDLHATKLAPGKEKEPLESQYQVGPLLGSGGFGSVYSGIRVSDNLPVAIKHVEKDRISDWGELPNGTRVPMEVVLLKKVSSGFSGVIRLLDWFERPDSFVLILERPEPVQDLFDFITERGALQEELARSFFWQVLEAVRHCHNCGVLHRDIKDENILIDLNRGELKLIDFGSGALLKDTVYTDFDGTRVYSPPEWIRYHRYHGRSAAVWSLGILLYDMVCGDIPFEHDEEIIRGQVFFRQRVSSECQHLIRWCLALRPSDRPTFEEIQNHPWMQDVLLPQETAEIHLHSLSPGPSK

[16] = target: PI3-kinase p110-alpha/p85-alpha (Homo sapiens) (UniProt P27986+P42336); assay: Inhibition of full-length recombinant human PI3K (p110a/p85a) at 10 uM using phosphatidylinositol 4,5-bisphosphate as substrate after 40 mins by fluorescence based assay relative to control; assay type: protein-complex assay
[17] = target: Tyrosine-protein kinase Fes/Fps (Homo sapiens) (UniProt P07332); assay: Inhibition of recombinant human FES (2 to end residues) at 10 uM using poly(Glu, Tyr) 4:1 as substrate measured after 40 mins in presence of [gamma33P]ATP by scintillation counting method relative to control
[18] = target: Proto-oncogene tyrosine-protein kinase Src (Homo sapiens) (UniProt P12931); assay: Inhibition of recombinant full length human cSRC at 10 uM using KVEKIGEGTYGVVYK as substrate measured after 40 mins in presence of [gamma33P]ATP by scintillation counting method relative to control
Proto-oncogene tyrosine-protein kinase Src (Homo sapiens), sequence (P12931 2-536 limits assumed): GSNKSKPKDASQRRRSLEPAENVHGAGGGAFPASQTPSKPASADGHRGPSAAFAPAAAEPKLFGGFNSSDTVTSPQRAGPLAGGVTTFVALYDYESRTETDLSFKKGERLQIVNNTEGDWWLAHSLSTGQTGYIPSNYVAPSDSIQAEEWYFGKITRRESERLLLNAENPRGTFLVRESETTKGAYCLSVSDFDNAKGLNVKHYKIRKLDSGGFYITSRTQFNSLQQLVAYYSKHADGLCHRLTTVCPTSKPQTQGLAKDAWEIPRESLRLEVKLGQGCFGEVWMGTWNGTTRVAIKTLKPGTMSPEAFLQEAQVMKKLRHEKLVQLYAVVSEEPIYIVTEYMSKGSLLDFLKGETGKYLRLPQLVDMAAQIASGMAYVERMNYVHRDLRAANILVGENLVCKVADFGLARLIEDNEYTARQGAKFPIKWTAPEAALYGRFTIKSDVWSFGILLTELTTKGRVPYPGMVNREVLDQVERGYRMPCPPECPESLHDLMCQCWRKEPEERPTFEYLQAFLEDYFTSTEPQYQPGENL

[19] = target: Platelet-derived growth factor receptor beta (Homo sapiens) (UniProt P09619); assay: Inhibition of recombinant human PDGFRbeta (557 to end residues) at 10 uM using poly(Glu, Tyr) 4:1 as substrate measured after 40 mins in presence of [gamma33P]ATP by scintillation counting method relative to control
[20] = target: Myosin light chain kinase 2, skeletal/cardiac muscle (Homo sapiens) (UniProt Q9H1R3); assay: Inhibition of recombinant full-length human MYLK2 at 10 uM using KKLNRTLSFAEPG as substrate measured after 40 mins in presence of [gamma33P]ATP by scintillation counting method relative to control
Myosin light chain kinase 2, skeletal/cardiac muscle (Homo sapiens), sequence (Q9H1R3 whole entry): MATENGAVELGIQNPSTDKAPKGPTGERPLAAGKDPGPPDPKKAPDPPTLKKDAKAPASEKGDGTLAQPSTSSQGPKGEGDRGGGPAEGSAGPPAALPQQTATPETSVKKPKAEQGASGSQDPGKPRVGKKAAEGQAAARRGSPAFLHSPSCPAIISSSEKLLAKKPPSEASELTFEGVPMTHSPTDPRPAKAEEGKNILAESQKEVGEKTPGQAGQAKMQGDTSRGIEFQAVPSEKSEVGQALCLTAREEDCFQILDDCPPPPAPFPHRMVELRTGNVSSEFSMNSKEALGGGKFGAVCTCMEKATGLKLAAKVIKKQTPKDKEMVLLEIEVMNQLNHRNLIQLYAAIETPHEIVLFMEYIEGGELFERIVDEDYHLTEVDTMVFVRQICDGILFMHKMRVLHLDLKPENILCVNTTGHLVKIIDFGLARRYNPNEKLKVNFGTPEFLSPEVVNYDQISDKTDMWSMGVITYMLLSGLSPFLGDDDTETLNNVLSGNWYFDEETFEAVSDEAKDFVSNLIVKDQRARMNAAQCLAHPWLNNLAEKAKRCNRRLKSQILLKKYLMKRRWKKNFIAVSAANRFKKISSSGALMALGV

[21] = target: Leucine-rich repeat serine/threonine-protein kinase 2 (Homo sapiens) (UniProt Q5S007); assay: Inhibition of recombinant human LRRK2 (970 to end residues) at 10 uM using RLGRDKYKTLRQIRQ as substrate measured after 40 mins in presence of [gamma33P]ATP by scintillation counting method relative to control
Leucine-rich repeat serine/threonine-protein kinase 2 (Homo sapiens), sequence (Q5S007 whole entry): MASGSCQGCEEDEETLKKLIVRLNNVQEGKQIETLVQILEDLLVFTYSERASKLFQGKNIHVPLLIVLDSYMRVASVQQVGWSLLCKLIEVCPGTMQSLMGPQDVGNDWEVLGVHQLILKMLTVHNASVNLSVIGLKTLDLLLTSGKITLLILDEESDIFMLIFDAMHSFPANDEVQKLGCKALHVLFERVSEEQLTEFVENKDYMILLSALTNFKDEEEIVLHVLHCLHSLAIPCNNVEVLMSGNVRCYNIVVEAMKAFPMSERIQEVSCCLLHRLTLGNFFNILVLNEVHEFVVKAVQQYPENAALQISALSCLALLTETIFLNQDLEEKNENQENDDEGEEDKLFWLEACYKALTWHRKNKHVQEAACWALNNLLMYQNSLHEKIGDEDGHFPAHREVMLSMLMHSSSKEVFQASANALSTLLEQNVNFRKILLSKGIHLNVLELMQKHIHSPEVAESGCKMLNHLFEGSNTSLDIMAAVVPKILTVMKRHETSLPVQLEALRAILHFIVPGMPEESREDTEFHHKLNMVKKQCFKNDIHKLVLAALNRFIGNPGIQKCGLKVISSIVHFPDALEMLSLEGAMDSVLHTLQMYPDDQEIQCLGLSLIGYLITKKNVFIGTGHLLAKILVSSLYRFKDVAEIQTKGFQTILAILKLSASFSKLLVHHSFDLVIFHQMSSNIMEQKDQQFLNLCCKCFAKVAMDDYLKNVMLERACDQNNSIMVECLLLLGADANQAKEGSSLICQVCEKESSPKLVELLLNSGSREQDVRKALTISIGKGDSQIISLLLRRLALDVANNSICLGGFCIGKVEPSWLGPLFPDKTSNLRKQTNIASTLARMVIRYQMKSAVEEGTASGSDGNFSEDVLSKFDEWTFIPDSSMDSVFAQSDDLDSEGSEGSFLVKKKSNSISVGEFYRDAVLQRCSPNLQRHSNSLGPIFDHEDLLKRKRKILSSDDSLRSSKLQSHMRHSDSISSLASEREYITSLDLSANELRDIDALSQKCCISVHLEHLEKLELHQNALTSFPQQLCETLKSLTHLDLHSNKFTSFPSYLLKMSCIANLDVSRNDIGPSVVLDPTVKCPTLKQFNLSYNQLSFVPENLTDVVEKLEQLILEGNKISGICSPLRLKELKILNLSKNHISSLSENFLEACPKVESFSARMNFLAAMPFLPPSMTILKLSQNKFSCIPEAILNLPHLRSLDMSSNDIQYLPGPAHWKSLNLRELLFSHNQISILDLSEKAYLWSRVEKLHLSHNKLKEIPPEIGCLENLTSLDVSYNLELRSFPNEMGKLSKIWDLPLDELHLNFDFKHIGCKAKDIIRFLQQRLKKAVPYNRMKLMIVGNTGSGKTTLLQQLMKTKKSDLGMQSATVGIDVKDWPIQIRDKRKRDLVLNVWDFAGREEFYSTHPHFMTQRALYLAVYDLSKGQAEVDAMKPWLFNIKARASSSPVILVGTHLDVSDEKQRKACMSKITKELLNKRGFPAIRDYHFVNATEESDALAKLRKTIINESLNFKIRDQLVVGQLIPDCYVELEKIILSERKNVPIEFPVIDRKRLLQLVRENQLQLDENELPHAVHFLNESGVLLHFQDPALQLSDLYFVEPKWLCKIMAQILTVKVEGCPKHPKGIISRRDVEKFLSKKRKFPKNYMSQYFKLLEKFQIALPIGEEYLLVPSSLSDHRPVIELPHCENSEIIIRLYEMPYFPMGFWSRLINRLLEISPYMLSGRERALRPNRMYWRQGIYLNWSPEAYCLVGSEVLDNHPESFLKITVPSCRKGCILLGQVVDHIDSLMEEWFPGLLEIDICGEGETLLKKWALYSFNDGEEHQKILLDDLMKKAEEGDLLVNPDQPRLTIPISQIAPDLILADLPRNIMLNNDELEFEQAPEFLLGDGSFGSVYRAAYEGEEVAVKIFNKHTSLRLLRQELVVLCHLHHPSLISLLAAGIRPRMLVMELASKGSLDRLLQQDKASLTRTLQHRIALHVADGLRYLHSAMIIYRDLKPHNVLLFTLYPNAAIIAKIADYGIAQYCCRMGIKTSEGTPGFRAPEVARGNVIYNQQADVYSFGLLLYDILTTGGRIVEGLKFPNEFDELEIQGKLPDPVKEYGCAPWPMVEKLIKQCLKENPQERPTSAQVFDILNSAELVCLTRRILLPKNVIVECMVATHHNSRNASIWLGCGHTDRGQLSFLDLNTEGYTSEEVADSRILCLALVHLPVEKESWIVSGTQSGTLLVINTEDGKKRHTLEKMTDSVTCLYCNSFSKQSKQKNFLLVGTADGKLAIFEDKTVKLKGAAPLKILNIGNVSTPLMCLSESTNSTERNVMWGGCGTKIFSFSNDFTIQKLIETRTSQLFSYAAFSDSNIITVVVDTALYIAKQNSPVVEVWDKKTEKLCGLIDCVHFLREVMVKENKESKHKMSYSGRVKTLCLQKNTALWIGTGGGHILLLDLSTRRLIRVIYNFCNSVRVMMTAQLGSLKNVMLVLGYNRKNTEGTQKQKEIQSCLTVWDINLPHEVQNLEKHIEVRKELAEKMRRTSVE

[22] = target: Activin receptor type-2A (Homo sapiens) (UniProt P27037); assay: Inhibition of recombinant human ACTR2 (162 to end residues) at 10 uM using casein as substrate after 120 mins in presence of [gamma33P]ATP by scintillation counting method relative to control
Activin receptor type-2A (Homo sapiens), sequence (P27037 whole entry): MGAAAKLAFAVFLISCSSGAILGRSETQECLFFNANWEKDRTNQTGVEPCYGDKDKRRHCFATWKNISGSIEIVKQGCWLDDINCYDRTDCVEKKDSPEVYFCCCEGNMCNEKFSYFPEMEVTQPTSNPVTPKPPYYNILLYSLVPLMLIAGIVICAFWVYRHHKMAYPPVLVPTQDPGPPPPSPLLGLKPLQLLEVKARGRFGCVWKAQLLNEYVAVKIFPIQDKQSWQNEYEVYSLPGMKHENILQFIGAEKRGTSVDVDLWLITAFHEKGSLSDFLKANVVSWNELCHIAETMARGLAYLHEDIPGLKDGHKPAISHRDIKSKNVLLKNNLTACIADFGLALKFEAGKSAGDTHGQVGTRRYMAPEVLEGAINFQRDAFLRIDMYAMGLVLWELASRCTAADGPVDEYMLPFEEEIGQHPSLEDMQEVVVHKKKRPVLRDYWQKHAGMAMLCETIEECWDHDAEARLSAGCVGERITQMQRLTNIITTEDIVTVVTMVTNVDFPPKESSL

[23] = target: Histone-arginine methyltransferase CARM1 (Homo sapiens) (UniProt Q86X55); assay: Inhibition of human PRMT4 at 10 uM relative to control

C=CS(=O)(=O)Nc1ccc(Cc2ccc3ccccc3c2)cc1
ΔTm [1]: 7 to 7.2 °C
Activity [2]: Active
inhibition [3]: inactive
inhibition [4]: 22%
inhibition [5]: -8%
inhibition [6]: 2%
inhibition [7]: 6%
inhibition [8]: 13%
inhibition [9]: -10%
inhibition [10]: -9%
inhibition [11]: 3%
inhibition [12]: 4%
inhibition [13]: -4%
inhibition [14]: 8%
inhibition (Homo sapiens): 9%
inhibition [15]: -3%
inhibition [16]: 16%
inhibition [17]: 0%
inhibition [18]: -4%
inhibition [19]: 3%
inhibition [20]: 6%
inhibition [21]: -10%
inhibition [22]: -5%
inhibition [23]: 5%

— ChEMBL document CHEMBL4376829, “Discovery and biological evaluation of vinylsulfonamide derivatives as highly potent, covalent TEAD autopalmitoylation inhibitors” (Eur J Med Chem, 2019)
